This is an account of results in ChEMBL document CHEMBL5325413, “Optimization of BAX trigger site activator BTSA1 with improved antitumor potency and in vitro ADMET properties” (Eur J Med Chem, 2023).

Activity calls are given as the source filed them. The rule behind the calls is not given here. Some results are limits rather than exact numbers.

Data set [1] in a line: in vitro. Conditions: mouse.
The nature of data set [2]: in vitro. The note with it: human.
The conditions of data set [3]: mouse, microsomes, 1 h, 100 µM.
For data set [4] the following is noted: mouse, 1 h, 100 µM.
The conditions of data set [5]: human, microsomes, 1 h, 100 µM.
The conditions of data set [6]: human, Liver, 1 h, 100 µM.
A short description of data set [7]: Stability in rat plasma assessed as compound remaining measured after 60 mins. It is filed as ADME, cell-free. Conditions: read-out: Stability.
Data set [8] is described as follows: Stability in rat plasma assessed as compound remaining measured after 30 mins. Conditions: read-out: Stability. It is filed as ADME, cell-free.
Data set [9] in a line: Stability in rat plasma assessed as compound remaining measured immediately. Type of data set: ADME, cell-free. Conditions: read-out: Stability.
The nature of data set [10]: Stability in rat plasma assessed as half life. Type of data set: ADME, cell-free.
The nature of data set [11]: Stability in rat plasma assessed as compound remaining measured after 10 mins. It is filed as ADME, cell-free. The note with it: read-out: Stability.
Data set [12] in a line: Stability in rat plasma assessed as compound remaining measured after 120 mins. The note with it: read-out: Stability. Type of data set: ADME, cell-free.
Data set [13] has as its system A549. In words: Induction of apoptosis in human A549 cells assessed as total apoptotic cells at 40 uM incubated for 48 hrs by Annexin V-FITC/PI staining based flow cytometry analysis (reference value: 4.26%). It is filed as functional. A general note: Flow cytometry measures light scatter and fluorescence of single cells or particles in a stream.
The next data set has as its system MV4-11. The experiment in a line: Antiproliferative activity against human MV4-11 cells expressing BAX assessed as cell growth inhibition incubated for 72 hrs by trypan blue cell counting analysis. Type of data set: functional.
The subject of data set [14] is A549. In words: Induction of apoptosis in human A549 cells assessed as late apoptotic cells at 40 uM incubated for 48 hrs by Annexin V-FITC/PI staining based flow cytometry analysis (reference value: 2.52%). It is filed as functional.
For data set [15], the system named is A549. In words: Antiproliferative activity against human A549 cells assessed as cell growth inhibition incubated for 72 hrs by MTT assay. Type of data set: functional. (Formazan colour is commonly taken as a measure of viable cells.)
For data set [16], the system named is A549. The experiment in a line: Induction of cell cycle arrest in human A549 cells assessed as accumulation of cells at G2/M phase at 10 uM incubated for 48 hrs by RNase/PI staining based flow cytometry analysis (reference value: 18.97%). It is filed as functional.
Data set [17] has as its system A549. In words: Induction of apoptosis in human A549 cells assessed as dead cells at 10 uM incubated for 48 hrs by Annexin V-FITC/PI staining based flow cytometry analysis (reference value: 0.739%). It is filed as functional.
Data set [18] concerns A549. The experiment in a line: Induction of apoptosis in human A549 cells assessed as live cells at 40 uM incubated for 48 hrs by Annexin V-FITC/PI staining based flow cytometry analysis (reference value: 95.9 %). Type of data set: functional.
In a further data set the test system is HCT-116. In words: Antiproliferative activity against human HCT-116 cells assessed as cell growth inhibition incubated for 72 hrs by MTT assay. Type of data set: functional.
Data set [19] relates to A549. In words: Induction of apoptosis in human A549 cells assessed as dead cells at 40 uM incubated for 48 hrs by Annexin V-FITC/PI staining based flow cytometry analysis (reference value: 0.535%). Type of data set: functional.
In data set [20] the test system is A549. The experiment in a line: Inhibition of colony formation in human A549 cells at 20 uM incubated for 2 weeks by crystal violet staining based analysis. Type of data set: functional, cell-based.
The subject of data set [21] is A549. The experiment in a line: Induction of apoptosis in human A549 cells assessed as late apoptotic cells at 10 uM incubated for 48 hrs by Annexin V-FITC/PI staining based flow cytometry analysis (reference value: 2.15%). It is filed as functional.
The test system of data set [22] is A549. In words: Induction of apoptosis in human A549 cells assessed as live cells at 20 uM incubated for 48 hrs by Annexin V-FITC/PI staining based flow cytometry analysis (reference value: 95.9 %). Type of data set: functional.
The subject of data set [23] is A549. In words: Induction of apoptosis in human A549 cells assessed as dead cells at 20 uM incubated for 48 hrs by Annexin V-FITC/PI staining based flow cytometry analysis (reference value: 0.535%). Type of data set: functional.
In data set [24] the test system is A549. The experiment in a line: Antiproliferative activity against human A549 cells assessed as reduction in cell viability at 5 to 25 uM by MTT assay. Type of data set: functional, cell-based. Conditions: dose 5-25 µM, time 24-72 hrs, TDE = time-dependent effect.
Data set [25] deals with A549. The experiment in a line: Induction of apoptosis in human A549 cells assessed as total apoptotic cells at 20 uM incubated for 48 hrs by Annexin V-FITC/PI staining based flow cytometry analysis (reference value: 4.26%). Type of data set: functional.
The next data set has as its system K562. The experiment in a line: Antiproliferative activity against human K562 cells expressing BAX assessed as cell growth inhibition incubated for 72 hrs by trypan blue cell counting analysis. It is filed as functional.
In data set [26] the test system is A549. The experiment in a line: Induction of apoptosis in human A549 cells assessed as total apoptotic cells at 10 uM incubated for 48 hrs by Annexin V-FITC/PI staining based flow cytometry analysis (reference value: 2.86%). It is filed as functional.
For data set [27], the system named is A549. The experiment in a line: Induction of apoptosis in human A549 cells assessed as early apoptotic cells at 10 uM incubated for 48 hrs by Annexin V-FITC/PI staining based flow cytometry analysis (reference value: 0.708%). It is filed as functional.
For another data set, the system named is MDA-MB-231. In words: Antiproliferative activity against human MDA-MB-231 cells expressing BAX assessed as cell growth inhibition incubated for 72 hrs by MTT assay. Type of data set: functional.
Data set [28] concerns A549. The experiment in a line: Induction of cell cycle arrest in human A549 cells assessed as accumulation of cells at S phase at 10 uM incubated for 48 hrs by RNase/PI staining based flow cytometry analysis (reference value: 26.01%). Type of data set: functional.
Data set [29] relates to A549. In words: Induction of cell cycle arrest in human A549 cells assessed as accumulation of cells at G0/G1 phase at 10 uM incubated for 48 hrs by RNase/PI staining based flow cytometry analysis (reference value: 54.82%). Type of data set: functional.
Data set [30] relates to A549. In words: Induction of apoptosis in human A549 cells assessed as early apoptotic cells at 20 uM incubated for 48 hrs by Annexin V-FITC/PI staining based flow cytometry analysis (reference value: 1.09 %). Type of data set: functional.
Data set [31] is described as follows: Metabolic stability in mouse liver microsomes assessed as parent compound remaining at 100 uM incubated for 60 mins in presence of NADPH by LC-MS/MS analysis. In general terms: Liver microsomes are a subcellular fraction often used to study metabolism.
Data set [32] is described as follows: Metabolic stability in human liver microsomes assessed as parent compound remaining at 100 uM incubated for 60 mins in absence of NADPH by LC-MS/MS analysis.
The next data set concerns THP-1. The experiment in a line: Antiproliferative activity against human THP-1 cells expressing BAX assessed as cell growth inhibition incubated for 72 hrs by trypan blue cell counting analysis. It is filed as functional.
Data set [33] is described as follows: Metabolic stability in mouse liver microsomes assessed as parent compound remaining at 100 uM incubated for 60 mins in absence of NADPH by LC-MS/MS analysis.
In data set [34] the test system is A549. In words: Induction of apoptosis in human A549 cells assessed as cell rounding at 20 to 80 uM incubated for 48 hrs by Hoechst 33342 staining based fluorescence microscopic analysis. Conditions: dose 20-80 µM. It is filed as functional.
In a further data set the test system is NCI-H1581. In words: Antiproliferative activity against human NCI-H1581 cells expressing BAX assessed as cell growth inhibition incubated for 72 hrs by MTT assay. It is filed as functional.
The nature of data set [35]: Metabolic stability in human liver microsomes assessed as parent compound remaining at 100 uM incubated for 60 mins in presence of NADPH by LC-MS/MS analysis.
The test system of data set [36] is A549. The experiment in a line: Induction of apoptosis in human A549 cells assessed as formation of apoptotic bodies at 20 to 80 uM incubated for 48 hrs by Hoechst 33342 staining based fluorescence microscopic analysis. It is filed as functional, cell-based. The note with it: dose 20-80 µM.
Data set [37] relates to A549. In words: Induction of apoptosis in human A549 cells assessed as live cells at 10 uM incubated for 48 hrs by Annexin V-FITC/PI staining based flow cytometry analysis (reference value: 96.4%). Type of data set: functional.
Data set [38] relates to A549. The experiment in a line: Induction of apoptosis in human A549 cells assessed as nuclear fragmentation at 20 to 80 uM incubated for 48 hrs by Hoechst 33342 staining based fluorescence microscopic analysis. It is filed as functional, cell-based. Conditions: dose 20-80 µM.
The subject of another data set is PC-3. In words: Antiproliferative activity against human PC-3 cells assessed as cell growth inhibition incubated for 72 hrs by MTT assay. Type of data set: functional.
In data set [39] the test system is A549. The experiment in a line: Induction of apoptosis in human A549 cells assessed as late apoptotic cells at 20 uM incubated for 48 hrs by Annexin V-FITC/PI staining based flow cytometry analysis (reference value: 2.52%). It is filed as functional.

Take `O=C(O)Cc1ccccc1Nc1c(Cl)cccc1Cl` [DICLOFENAC]: the half-life at 1 h, 100 µM in “in vitro [1]” (microsomes) was found to be 46.7 min; in “in vitro [2]” (microsomes), 6.8 min. In addition, the CLint in [3] was 29.7 µL/min/mg; in data set [5], 203 µL/min/mg. The results for the CLH in [4] (Liver) and in data set [6] were 0.1176 mL/min/kg and 183 mL/min/kg, respectively.

`CCOC(=O)[C@H](CCc1ccccc1)N[C@@H](C)C(=O)N1CCC[C@H]1C(=O)O.O=C(O)/C=C\C(=O)O` [ENALAPRIL MALEATE]: the remaining at 1 h in data set [7] was determined as 2.7%. Besides, the remaining at 0.5 h in data set [8] worked out at 19.2%. In addition, in data set [9], the remaining at 0 min was determined as 100%. Also, the half-life in [10] was determined as 10 min. For the same molecule, the remaining at 10 min in data set [11] came to 58.9%. Besides, the remaining at 2 h in [12] is 0%.

For the molecule `O=C1/C(=N\Nc2nccs2)C(c2ccccc2)=NN1c1nc(-c2ccccc2)cs1`, the half-life at 1 h, 100 µM in “in vitro [1]” (liver microsomes) came out at 87.6 min; in the data set “in vitro [2]” (liver microsomes), 65 min. For the same molecule, the Activity with A549 [13] was 14.92%; in the data set with A549 [14] it was 10.2%; with A549 [16], 10.12%; in the data set on A549 [17], 0.651%; in the data set with A549 [18], 82.2%; with A549 [19], 2.82%. The Activity is 2.97% in the data set on A549 [21]; 93.6% in the data set on A549 [22]; 0.486% in the data set with A549 [23]; “Tde” with A549 [24]; 5.91% with A549 [25]; 3.81% in the data set with A549 [26]. Also, the Activity came out at 0.844% in the data set with A549 [27]; 24.77% in the data set on A549 [28]; 57.42% with A549 [29]; 3.21% in the data set with A549 [30]; 95.5% with A549 [37]; 2.7% with A549 [39]. The GI50 in the data set on MV4-11 was 6.29 µM; in the data set with A549 [15] it was 14.5 µM; with HCT-116, 12.5 µM; in the data set on K562, over 4 µM; in the data set with MDA-MB-231, over 20 µM; with THP-1, over 10 µM. Also, the GI50 in the data set with NCI-H1581 is 6.22 µM; in the data set on PC-3, 14.3 µM. Besides, the inhibition result in the data set with A549 [20] was “Active”. Moreover, the figures for the CLint in data set [3] and in [5] were 15.8 µL/min/mg and 21.3 µL/min/mg, respectively. In addition, the remaining at 1 h in [7] was found to be 100%. For the same molecule, in [8], the remaining at 0.5 h amounted to 98.2%. For the same molecule, in [4], the CLH turned out to be 0.0626 mL/min/kg. Besides, the remaining at 0 min in data set [9] stood at 100%. Further, the remaining at 1 h, 100 µM came to 59.4% in data set [31], 94.2% in data set [32], 84.8% in [33] and 55.6% in data set [35]. Also, the half-life in data set [10] is over 289 min. The result in the data set with A549 [34], with A549 [36] and with A549 [38] was Active. In addition, the remaining at 10 min in data set [11] turned out to be 101%. In addition, the remaining at 2 h in [12] amounted to 98.6%.

The half-life is how long it takes for the measured level to halve. Broadly, the GI50 is the concentration that inhibits growth by half.
